Like-named read-outs stand apart in the source and are kept apart here.
Key:
Assay type in all cases: cell-based, Escherichia coli
wild-type E. coli K-12 = system: wild-type E. coli K-12
Description: (§1) Synergy measurement using checkerboard analysis was performed in 96-well microtiter plates using the microdilution broth method, according to CLSI guidelines (Patel J. B., 2015). The cell inocula were prepared using the colony resuspension method. The minimum inhibitory concentrations (MICs) were defined as the lowest concentration that provided no growth, as determined by measurement of the OD600nm using a Synergy H1 microplate reader (BioTek). Susceptibility testing was performed in MHB II with a final volume of 100 μL. PAI3N (Bachem Americas) was solubilized in MHB II. […] Solvent controls were included in each plate.
(§2) The Fractional Inhibitory Concentration Index (FICI) was used to assess the synergy of PAI3N in combination with different antibiotics. The FICI represents the ΣFIC of each drug. The FICI for each drug was calculated using the following formula: FICI=FICA+FICB=(CA/MICA)+(CB/MICB). Where MICA and MICB are the MICs of drugs A (PAI3N/NMP) and B (antibiotic) alone, and CA and CB are the MICs of the drugs in combination. The effects of PAβN or NMP in combination with antibiotics were classified as: synergistic (FICI<0.5), additive (FICI>0.5-1.0), indifferent (FICI>1.0-2.0), and antagonistic (FICI>2.0). Fold increases in resistance provided by efflux pumps were calculated by dividing the MIC values of strains expressing efflux pumps by the MIC value of EKO-35.

EKO-35 = system: EKO-35
Description: as §1, §2

EKO-35 acrBD408A = system: EKO-35 acrBD408A
Description: as §1, §2

ΔtolC-Pore = system: ΔtolC-Pore
Description: as §1, §2

ΔtolC = system: ΔtolC
Description: as §1, §2

wild-type K-12-Pore = assay: Checkerboard synergy (FICI), porinated strain
Description: as §1, §2

[1] = system: EKO-35 porinated strain expressing acrB; assay: Checkerboard synergy (FICI), porinated strain
Description: as §1, §2

EKO-35-Pore = assay: Checkerboard synergy (FICI), porinated strain
Description: as §1, §2

[2] = system: EKO-35-Pore acrBD408A (functionally inactive AcrB variant); assay: Checkerboard synergy (FICI), porinated strain
Description: as §1, §2

[3] = strain EKO-35, NMP + antibiotic
[4] = EKO-35 acrBD408A, NMP + antibiotic
[5] = EKO-35 acrBD408A, PAβN + antibiotic
[6] = strain EKO-35 acrBD408A, NMP + antibiotic
[7] = strain ΔtolC Pore, NMP + antibiotic
[8] = EKO-35 acrB Pore, NMP + antibiotic
[9] = strain EKO-35 acrB Pore, NMP + antibiotic
[10] = strain EKO-35 Pore, NMP + antibiotic
[11] = strain EKO-35 acrBD408A Pore, NMP + antibiotic

For `CC(=O)NC[C@H]1CN(c2ccc(N3CCOCC3)c(F)c2)C(=O)O1` [linezolid], the Effect (wild-type E. coli K-12; K-12, NMP + antibiotic) was “Synergistic”, the FICI (wild-type E. coli K-12; K-12, NMP + antibiotic) was 0.375 and the Effect (wild-type E. coli K-12; K-12, PAβN + antibiotic) was “Synergistic”. The FICI (wild-type E. coli K-12; K-12, PAβN + antibiotic) was 0.125, the “MICb Alone” value (wild-type E. coli K-12; K-12, antibiotic alone (PAβN checkerboard)) was 256 µg/mL and the “MICb Combined” value (wild-type E. coli K-12; K-12, antibiotic in combination with PAβN) was 16 µg/mL. For the same molecule, the Effect (wild-type E. coli K-12; strain K-12, NMP + antibiotic) was “Synergistic (Synergy (FICI ≤0.5))”, the FICI (wild-type E. coli K-12; strain K-12, NMP + antibiotic) was 0.375 and the “MICb Alone” value (wild-type E. coli K-12; strain K-12, antibiotic alone) was 256 µg/mL. For the same molecule, the “MICb Combined” value (wild-type E. coli K-12; strain K-12, antibiotic in combination with NMP) was 32 µg/mL, the Effect (EKO-35; EKO-35, NMP + antibiotic) was “Additive” and the FICI (EKO-35; EKO-35, NMP + antibiotic) was 0.531. The Effect (EKO-35; EKO-35, PAβN + antibiotic) was “Additive”, the FICI (EKO-35; EKO-35, PAβN + antibiotic) was 0.750 and the “MICb Alone” value (EKO-35; EKO-35, antibiotic alone (PAβN checkerboard)) was 16 µg/mL. The “MICb Combined” value (EKO-35; EKO-35, antibiotic in combination with PAβN) was 4 µg/mL, the “interaction of PAβN in combination with the labelled antibiotic (FICI)” value (EKO-35; efflux-deficient strains EKO-35, EKO-35 acrBD408A, ΔtolC) was “not synergistic” and the Effect (EKO-35; [3]) was “Additive (additive (FICI >0.5-1.0))”. The FICI (EKO-35; [3]) was 0.531, the “MICb Alone” value (EKO-35; strain EKO-35, antibiotic alone) was 16 µg/mL and the “MICb Combined” value (EKO-35; strain EKO-35, antibiotic in combination with NMP) was 8 µg/mL. The Effect (EKO-35 acrBD408A; [4]) was “Additive”, the FICI (EKO-35 acrBD408A; [4]) was 0.516 and the Effect (EKO-35 acrBD408A; [5]) was “Additive”. The FICI (EKO-35 acrBD408A; [5]) was 0.750, the “MICb Alone” value (EKO-35 acrBD408A; EKO-35 acrBD408A, antibiotic alone (PAβN checkerboard)) was 16 µg/mL and the “MICb Combined” value (EKO-35 acrBD408A; EKO-35 acrBD408A, antibiotic in combination with PAβN) was 4 µg/mL. For the same molecule, the Effect (EKO-35 acrBD408A; [6]) was “Additive (additive (FICI >0.5-1.0))”, the FICI (EKO-35 acrBD408A; [6]) was 0.516 and the “MICb Alone” value (EKO-35 acrBD408A; strain EKO-35 acrBD408A, antibiotic alone) was 16 µg/mL. The “MICb Combined” value (EKO-35 acrBD408A; strain EKO-35 acrBD408A, antibiotic in combination with NMP) was 8 µg/mL, the Effect (ΔtolC-Pore; [7]) was “— (indifferent (FICI >1.0))” and the FICI (ΔtolC-Pore; [7]) was 1.000. For the same molecule, the “MICb Alone” value (ΔtolC-Pore; strain ΔtolC Pore, antibiotic alone) was 8 µg/mL, the “MICb Combined” value (ΔtolC-Pore; strain ΔtolC Pore, antibiotic in combination with NMP) was 4 µg/mL and the FICI (ΔtolC-Pore; ΔtolC Pore, NMP + antibiotic) was 1.000. For the same molecule, the Effect (ΔtolC-Pore; ΔtolC Pore, PAβN + antibiotic) was “Additive”, the FICI (ΔtolC-Pore; ΔtolC Pore, PAβN + antibiotic) was 0.563 and the “MICb Alone” value (ΔtolC-Pore; ΔtolC Pore, antibiotic alone (PAβN checkerboard)) was 8 µg/mL. For the same molecule, the “MICb Combined” value (ΔtolC-Pore; ΔtolC Pore, antibiotic in combination with PAβN) was 0.5 µg/mL, the Effect (ΔtolC; strain ΔtolC, NMP + antibiotic) was “— (indifferent (FICI >1.0))” and the FICI (ΔtolC; strain ΔtolC, NMP + antibiotic) was 2.000. The “MICb Alone” value (ΔtolC; strain ΔtolC, antibiotic alone) was 8 µg/mL, the “MICb Combined” value (ΔtolC; strain ΔtolC, antibiotic in combination with NMP) was 8 µg/mL and the FICI (ΔtolC; ΔtolC, NMP + antibiotic) was 2.000. The Effect (ΔtolC; ΔtolC, PAβN + antibiotic) was “Additive”, the FICI (ΔtolC; ΔtolC, PAβN + antibiotic) was 0.750 and the “MICb Alone” value (ΔtolC; ΔtolC, antibiotic alone (PAβN checkerboard)) was 8 µg/mL. For the same molecule, the “MICb Combined” value (ΔtolC; ΔtolC, antibiotic in combination with PAβN) was 2 µg/mL, the Effect (wild-type K-12-Pore; K-12 Pore, NMP + antibiotic) was “Synergistic” and the Effect (wild-type K-12-Pore; K-12 Pore, PAβN + antibiotic) was “Synergistic”. The FICI (wild-type K-12-Pore; K-12 Pore, PAβN + antibiotic) was 0.250, the “MICb Alone” value (wild-type K-12-Pore; K-12 Pore, antibiotic alone (PAβN checkerboard)) was 128 µg/mL and the “MICb Combined” value (wild-type K-12-Pore; K-12 Pore, antibiotic in combination with PAβN) was 16 µg/mL. For the same molecule, the Effect (wild-type K-12-Pore; strain K-12 Pore, NMP + antibiotic) was “Synergistic (Synergy (FICI ≤0.5))”, the “MICb Alone” value (wild-type K-12-Pore; strain K-12 Pore, antibiotic alone) was 128 µg/mL and the “MICb Combined” value (wild-type K-12-Pore; strain K-12 Pore, antibiotic in combination with NMP) was 32 µg/mL. The Effect [1, 8] was “Synergistic”, the FICI [1, 8] was 0.250 and the Effect ([1]; EKO-35 acrB Pore, PAβN + antibiotic) was “Synergistic”. For the same molecule, the “MICb Alone” value ([1]; EKO-35 acrB Pore, antibiotic alone (PAβN checkerboard)) was 128 µg/mL, the “MICb Combined” value ([1]; EKO-35 acrB Pore, antibiotic in combination with PAβN) was 8 µg/mL and the “potentiation of the labelled compound by NMP” value ([1]; porinated strain producing AcrB) was “enhancing the activity”. For the same molecule, the Effect [1, 9] was “Synergistic (Synergy (FICI ≤0.5))”, the FICI [1, 9] was 0.250 and the “MICb Alone” value ([1]; strain EKO-35 acrB Pore, antibiotic alone) was 128 µg/mL. The “MICb Combined” value ([1]; strain EKO-35 acrB Pore, antibiotic in combination with NMP) was 16 µg/mL, the FICI (EKO-35-Pore; EKO-35 Pore, NMP + antibiotic) was 2.000 and the FICI (EKO-35-Pore; EKO-35 Pore, PAβN + antibiotic) was 1.000. For the same molecule, the “MICb Alone” value (EKO-35-Pore; EKO-35 Pore, antibiotic alone (PAβN checkerboard)) was 8 µg/mL, the “MICb Combined” value (EKO-35-Pore; EKO-35 Pore, antibiotic in combination with PAβN) was 4 µg/mL and the Effect (EKO-35-Pore; [10]) was “— (indifferent (FICI >1.0))”. The FICI (EKO-35-Pore; [10]) was 2.000, the “MICb Alone” value (EKO-35-Pore; strain EKO-35 Pore, antibiotic alone) was 8 µg/mL and the “MICb Combined” value (EKO-35-Pore; strain EKO-35 Pore, antibiotic in combination with NMP) was 8 µg/mL. For the same molecule, the FICI ([2]; EKO-35 acrBD408A Pore, NMP + antibiotic) was 2.000, the FICI ([2]; EKO-35 acrBD408A Pore, PAβN + antibiotic) was 1.000 and the “MICb Alone” value ([2]; EKO-35 acrBD408A Pore, antibiotic alone (PAβN checkerboard)) was 8 µg/mL. The “MICb Combined” value ([2]; EKO-35 acrBD408A Pore, antibiotic in combination with PAβN) was 4 µg/mL, the Effect [2, 11] was “— (indifferent (FICI >1.0))” and the FICI [2, 11] was 2.000. For the same molecule, the “MICb Alone” value ([2]; strain EKO-35 acrBD408A Pore, antibiotic alone) was 8 µg/mL and the “MICb Combined” value ([2]; strain EKO-35 acrBD408A Pore, antibiotic in combination with NMP) was 8 µg/mL.
